Experimental data published in PMC9067983, “Identification of highly selective type II kinase inhibitors with chiral peptidomimetic tails” (Journal of Enzyme Inhibition and Medicinal Chemistry, 2022).
Where a SMILES comes first, the peptide text is derived from it. [ ]: non-standard residue; d: D form. The star is where a group is joined. X1 = Cc1ccc(Nc2ncc3c(n2)N(C)C(=O)N(c2cc(C(=O)*)ccc2C)C3)cn1; Aib = CC(C)(N)C(=O)O

Assays:
Test in all cases: kinase selectivity profiling
Assay type in all cases: biochemical
Settings in all cases: 10µM ATP, read-out: % inhibition (relative to DMSO)
AKT3 = biological target: T1, AKT3 (Homo sapiens, UniProt Q9Y243)
T1 construct: purchased Reaction Biology Corp
Experimental: (§1) Full panel kinase profiling and kinase IC50 measurement were performed by using Reaction Biology Corp. (San Diego, USA).

Fgr = biological target: T2, Fgr (Homo sapiens, UniProt P09769)
T2 construct: purchased Reaction Biology Corp
Experimental: as §1

RSK3 = biological target: T3, RSK3 (Homo sapiens, UniProt Q15349)
T3 construct: purchased Reaction Biology Corp
Experimental: as §1

CK1a1 = biological target: T4, CK1a1 (Homo sapiens, UniProt P48729)
T4 construct: purchased Reaction Biology Corp
Experimental: as §1

MARK1 = biological target: T5, MARK1 (Homo sapiens, UniProt Q9P0L2)
T5 construct: purchased Reaction Biology Corp
Experimental: as §1

MARK4 = biological target: T6, MARK4 (Homo sapiens, UniProt Q96L34)
T6 construct: purchased Reaction Biology Corp
T6 sequence (Q96L34 whole entry): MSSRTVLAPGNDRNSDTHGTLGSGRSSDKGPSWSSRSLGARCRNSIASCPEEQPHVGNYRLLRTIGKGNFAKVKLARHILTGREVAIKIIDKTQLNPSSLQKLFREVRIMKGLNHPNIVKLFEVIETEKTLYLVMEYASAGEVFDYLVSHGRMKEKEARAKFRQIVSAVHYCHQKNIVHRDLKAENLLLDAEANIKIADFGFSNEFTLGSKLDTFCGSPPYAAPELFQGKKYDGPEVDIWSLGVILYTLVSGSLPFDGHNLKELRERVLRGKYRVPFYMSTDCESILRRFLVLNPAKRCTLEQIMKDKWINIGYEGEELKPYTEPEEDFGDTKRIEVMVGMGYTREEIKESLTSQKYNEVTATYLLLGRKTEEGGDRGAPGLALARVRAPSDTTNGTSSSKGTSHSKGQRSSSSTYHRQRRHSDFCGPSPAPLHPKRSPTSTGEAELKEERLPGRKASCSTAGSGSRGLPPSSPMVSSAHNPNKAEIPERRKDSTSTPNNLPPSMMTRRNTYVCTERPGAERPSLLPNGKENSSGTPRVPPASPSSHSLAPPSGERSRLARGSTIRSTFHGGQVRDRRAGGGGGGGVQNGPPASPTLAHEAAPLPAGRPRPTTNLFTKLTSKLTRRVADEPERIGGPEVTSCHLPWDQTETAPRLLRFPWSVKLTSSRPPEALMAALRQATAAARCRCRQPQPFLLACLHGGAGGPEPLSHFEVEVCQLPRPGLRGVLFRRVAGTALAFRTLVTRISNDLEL
Experimental: as §1

SNARK/NUAK2 = biological target: T7, SNARK/NUAK2 (Homo sapiens, UniProt Q9H093)
T7 construct: purchased Reaction Biology Corp
Experimental: as §1

CAMK1a = biological target: T8, CAMK1a (Homo sapiens, UniProt Q14012)
T8 construct: purchased Reaction Biology Corp
Experimental: as §1

TNK1 = biological target: T9, TNK1 (Homo sapiens, UniProt Q13470)
T9 construct: purchased Reaction Biology Corp
Experimental: as §1

PKG1b = biological target: T10, PKG1b (Homo sapiens, UniProt Q13976)
T10 construct: purchased Reaction Biology Corp
Experimental: as §1

TEC = biological target: T11, TEC (Homo sapiens, UniProt P42680)
T11 construct: purchased Reaction Biology Corp
Experimental: as §1

c-MER = biological target: T12, c-MER (Homo sapiens, UniProt Q12866)
T12 construct: purchased Reaction Biology Corp
Experimental: as §1

P38d/MAPK13 = biological target: T13, P38d/MAPK13 (Homo sapiens, UniProt O15264)
T13 construct: purchased Reaction Biology Corp
Experimental: as §1

MRCKa/CDC42BPA = biological target: T14, MRCKa/CDC42BPA (Homo sapiens, UniProt Q5VT25)
T14 construct: purchased Reaction Biology Corp
Experimental: as §1

CDK4/cyclin D3 = biological target: T15, CDK4/cyclin D3 (Homo sapiens, UniProt P11802)
T15 construct: purchased Reaction Biology Corp
Experimental: as §1

PKCeta = biological target: T16, PKCeta (Homo sapiens, UniProt P24723)
T16 construct: purchased Reaction Biology Corp
Experimental: as §1

TRKB = biological target: T17, TRKB (Homo sapiens, UniProt Q16620)
T17 construct: purchased Reaction Biology Corp
Experimental: as §1

PKMYT1 = biological target: T18, PKMYT1 (Homo sapiens, UniProt Q99640)
T18 construct: purchased Reaction Biology Corp
Experimental: as §1

PKCiota = biological target: T19, PKCiota (Homo sapiens, UniProt P41743)
T19 construct: purchased Reaction Biology Corp
Experimental: as §1

FGFR1 = biological target: T20, FGFR1 (Homo sapiens, UniProt P11362)
T20 construct: purchased Reaction Biology Corp
T20 sequence (P11362 22-822): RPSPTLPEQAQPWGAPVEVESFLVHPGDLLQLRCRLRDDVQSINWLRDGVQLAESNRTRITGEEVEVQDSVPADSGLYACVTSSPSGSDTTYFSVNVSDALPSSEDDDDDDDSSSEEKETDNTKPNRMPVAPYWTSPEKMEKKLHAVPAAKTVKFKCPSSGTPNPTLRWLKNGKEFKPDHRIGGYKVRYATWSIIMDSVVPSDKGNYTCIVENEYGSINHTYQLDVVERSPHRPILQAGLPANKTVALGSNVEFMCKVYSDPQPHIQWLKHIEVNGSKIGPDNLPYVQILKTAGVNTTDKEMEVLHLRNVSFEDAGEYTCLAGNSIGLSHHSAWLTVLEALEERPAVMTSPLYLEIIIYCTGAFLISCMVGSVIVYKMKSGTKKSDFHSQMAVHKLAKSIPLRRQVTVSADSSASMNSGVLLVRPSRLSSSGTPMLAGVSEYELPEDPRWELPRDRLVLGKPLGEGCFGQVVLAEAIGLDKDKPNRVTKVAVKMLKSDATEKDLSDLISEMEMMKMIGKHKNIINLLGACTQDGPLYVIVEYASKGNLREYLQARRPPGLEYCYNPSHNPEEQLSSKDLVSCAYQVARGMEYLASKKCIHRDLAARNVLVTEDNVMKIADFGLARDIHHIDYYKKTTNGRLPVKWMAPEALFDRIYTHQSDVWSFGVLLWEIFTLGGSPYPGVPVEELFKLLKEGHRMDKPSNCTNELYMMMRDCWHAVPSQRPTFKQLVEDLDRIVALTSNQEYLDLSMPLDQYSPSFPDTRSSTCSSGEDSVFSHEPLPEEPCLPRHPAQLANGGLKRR
Experimental: as §1

HIPK1 = biological target: T21, HIPK1 (Homo sapiens, UniProt Q86Z02)
T21 construct: purchased Reaction Biology Corp
Experimental: as §1

NLK = biological target: T22, NLK (Homo sapiens, UniProt Q9UBE8)
T22 construct: purchased Reaction Biology Corp
Experimental: as §1

MEK1 = biological target: T23, MEK1 (Homo sapiens, UniProt Q02750)
T23 construct: purchased Reaction Biology Corp
T23 sequence (Q02750 whole entry): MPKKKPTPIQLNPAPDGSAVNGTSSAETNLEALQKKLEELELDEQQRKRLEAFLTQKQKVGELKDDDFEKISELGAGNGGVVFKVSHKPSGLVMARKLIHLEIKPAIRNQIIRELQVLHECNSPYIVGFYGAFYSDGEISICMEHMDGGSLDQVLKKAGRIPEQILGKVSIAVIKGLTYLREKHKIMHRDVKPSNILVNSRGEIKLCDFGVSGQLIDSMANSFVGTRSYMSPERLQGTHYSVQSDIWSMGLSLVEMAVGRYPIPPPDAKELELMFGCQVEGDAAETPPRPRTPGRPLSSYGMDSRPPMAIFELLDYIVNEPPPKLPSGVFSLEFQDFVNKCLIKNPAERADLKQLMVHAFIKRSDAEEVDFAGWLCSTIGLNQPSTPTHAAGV
Experimental: as §1

FRK/PTK5 = biological target: T24, FRK/PTK5 (Homo sapiens, UniProt P42685)
T24 construct: purchased Reaction Biology Corp
Experimental: as §1

HIPK2 = biological target: T25, HIPK2 (Homo sapiens, UniProt Q9H2X6)
T25 construct: purchased Reaction Biology Corp
Experimental: as §1

DRAK1/STK17A = biological target: T26, DRAK1/STK17A (Homo sapiens, UniProt Q9UEE5)
T26 construct: purchased Reaction Biology Corp
Experimental: as §1

CK1d = biological target: T27, CK1d (Homo sapiens, UniProt P48730)
T27 construct: purchased Reaction Biology Corp
Experimental: as §1

VRK1 = biological target: T28, VRK1 (Homo sapiens, UniProt Q99986)
T28 construct: purchased Reaction Biology Corp
Experimental: as §1

GLK/MAP4K3 = biological target: T29, GLK/MAP4K3 (Homo sapiens, UniProt Q8IVH8)
T29 construct: purchased Reaction Biology Corp
Experimental: as §1

STK21/CIT = biological target: T30, STK21/CIT (Homo sapiens, UniProt O14578)
T30 construct: purchased Reaction Biology Corp
Experimental: as §1

PEAK1 = biological target: T31, PEAK1 (Homo sapiens, UniProt Q9H792)
T31 construct: purchased Reaction Biology Corp
Experimental: as §1

HIPK4 = biological target: T32, HIPK4 (Homo sapiens, UniProt Q8NE63)
T32 construct: purchased Reaction Biology Corp
T32 sequence (Q8NE63 whole entry): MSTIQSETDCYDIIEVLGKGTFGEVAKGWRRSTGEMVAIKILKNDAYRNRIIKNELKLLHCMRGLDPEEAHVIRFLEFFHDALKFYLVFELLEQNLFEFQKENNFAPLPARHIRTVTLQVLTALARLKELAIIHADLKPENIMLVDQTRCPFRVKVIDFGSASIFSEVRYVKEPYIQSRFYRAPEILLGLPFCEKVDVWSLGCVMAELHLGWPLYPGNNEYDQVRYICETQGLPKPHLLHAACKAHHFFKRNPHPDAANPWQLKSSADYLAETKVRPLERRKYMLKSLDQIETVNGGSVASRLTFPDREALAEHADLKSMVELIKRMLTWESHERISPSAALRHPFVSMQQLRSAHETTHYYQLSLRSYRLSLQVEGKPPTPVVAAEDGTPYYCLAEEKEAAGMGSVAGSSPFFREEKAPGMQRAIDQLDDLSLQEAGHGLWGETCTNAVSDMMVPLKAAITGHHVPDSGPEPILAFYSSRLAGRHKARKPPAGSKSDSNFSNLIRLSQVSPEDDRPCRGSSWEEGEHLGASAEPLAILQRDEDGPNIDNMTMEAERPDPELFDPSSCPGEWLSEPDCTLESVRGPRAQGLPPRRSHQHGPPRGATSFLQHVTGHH
Experimental: as §1

ALK = biological target: T33, ALK (Homo sapiens, UniProt Q9UM73)
T33 construct: purchased Reaction Biology Corp
Experimental: as §1

FLT4/VEGFR3 = biological target: T34, FLT4/VEGFR3 (Homo sapiens, UniProt P35916)
T34 construct: purchased Reaction Biology Corp
Experimental: as §1

FGFR3 = biological target: T35, FGFR3 (Homo sapiens, UniProt P22607)
T35 construct: purchased Reaction Biology Corp
Experimental: as §1

ZAK/MLTK = biological target: T36, ZAK/MLTK (Homo sapiens, UniProt Q9NYL2)
T36 construct: purchased Reaction Biology Corp
T36 sequence (Q9NYL2 whole entry): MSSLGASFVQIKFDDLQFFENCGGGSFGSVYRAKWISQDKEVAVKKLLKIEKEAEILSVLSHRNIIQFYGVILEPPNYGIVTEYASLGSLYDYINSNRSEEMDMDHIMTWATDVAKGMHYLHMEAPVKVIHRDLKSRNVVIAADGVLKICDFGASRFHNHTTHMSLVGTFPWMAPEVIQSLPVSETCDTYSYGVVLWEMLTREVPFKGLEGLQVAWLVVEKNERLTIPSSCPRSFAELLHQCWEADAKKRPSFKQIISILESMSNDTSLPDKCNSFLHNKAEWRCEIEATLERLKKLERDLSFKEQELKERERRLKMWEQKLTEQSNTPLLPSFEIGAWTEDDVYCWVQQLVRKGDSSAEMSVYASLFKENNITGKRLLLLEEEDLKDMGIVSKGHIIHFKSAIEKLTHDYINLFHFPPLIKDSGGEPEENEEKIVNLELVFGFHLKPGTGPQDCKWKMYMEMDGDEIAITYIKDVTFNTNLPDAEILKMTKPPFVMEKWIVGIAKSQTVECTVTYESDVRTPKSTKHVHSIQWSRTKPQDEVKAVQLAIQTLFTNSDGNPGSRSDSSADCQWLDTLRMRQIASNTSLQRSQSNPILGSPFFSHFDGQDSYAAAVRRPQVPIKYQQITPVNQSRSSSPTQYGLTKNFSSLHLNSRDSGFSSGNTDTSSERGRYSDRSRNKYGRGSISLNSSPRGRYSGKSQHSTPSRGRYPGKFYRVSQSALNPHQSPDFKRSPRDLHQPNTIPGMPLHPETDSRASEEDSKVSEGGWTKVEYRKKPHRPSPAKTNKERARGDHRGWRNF
Experimental: as §1

ERK5/MAPK7 = biological target: T37, ERK5/MAPK7 (Homo sapiens, UniProt Q13164)
T37 construct: purchased Reaction Biology Corp
Experimental: as §1

NEK8 = biological target: T38, NEK8 (Homo sapiens, UniProt Q86SG6)
T38 construct: purchased Reaction Biology Corp
Experimental: as §1

c-Src = biological target: T39, c-Src (Homo sapiens, UniProt P12931)
T39 construct: purchased Reaction Biology Corp
Experimental: as §1

EPHA3 = biological target: T40, EPHA3 (Homo sapiens, UniProt P29320)
T40 construct: purchased Reaction Biology Corp
T40 sequence (P29320 21-983): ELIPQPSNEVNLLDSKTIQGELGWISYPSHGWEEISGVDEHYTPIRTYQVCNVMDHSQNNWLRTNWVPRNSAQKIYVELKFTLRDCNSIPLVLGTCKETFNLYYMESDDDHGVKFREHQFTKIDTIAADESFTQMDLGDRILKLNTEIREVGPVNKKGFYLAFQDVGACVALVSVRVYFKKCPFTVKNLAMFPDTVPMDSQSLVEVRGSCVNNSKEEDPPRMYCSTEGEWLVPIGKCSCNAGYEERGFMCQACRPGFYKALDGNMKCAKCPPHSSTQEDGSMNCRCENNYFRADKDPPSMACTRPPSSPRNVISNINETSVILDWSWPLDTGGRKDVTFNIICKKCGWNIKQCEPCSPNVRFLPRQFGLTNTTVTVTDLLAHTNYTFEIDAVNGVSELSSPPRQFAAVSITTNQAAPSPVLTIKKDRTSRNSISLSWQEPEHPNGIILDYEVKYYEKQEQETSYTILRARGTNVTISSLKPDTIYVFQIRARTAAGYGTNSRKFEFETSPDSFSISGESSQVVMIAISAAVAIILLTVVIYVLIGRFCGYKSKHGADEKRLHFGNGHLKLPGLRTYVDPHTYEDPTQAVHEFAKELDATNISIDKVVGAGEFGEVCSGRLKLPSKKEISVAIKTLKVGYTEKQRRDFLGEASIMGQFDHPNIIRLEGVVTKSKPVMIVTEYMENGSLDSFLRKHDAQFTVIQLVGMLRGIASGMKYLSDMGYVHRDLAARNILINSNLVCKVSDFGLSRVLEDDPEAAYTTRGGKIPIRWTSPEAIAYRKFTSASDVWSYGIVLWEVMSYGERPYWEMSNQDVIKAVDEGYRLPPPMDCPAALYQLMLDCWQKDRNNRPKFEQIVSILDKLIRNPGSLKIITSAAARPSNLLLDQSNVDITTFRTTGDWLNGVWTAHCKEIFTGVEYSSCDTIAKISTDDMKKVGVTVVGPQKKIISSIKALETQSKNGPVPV
Experimental: as §1

PAK3 = biological target: T41, PAK3 (Homo sapiens, UniProt O75914)
T41 construct: purchased Reaction Biology Corp
T41 sequence (O75914 whole entry): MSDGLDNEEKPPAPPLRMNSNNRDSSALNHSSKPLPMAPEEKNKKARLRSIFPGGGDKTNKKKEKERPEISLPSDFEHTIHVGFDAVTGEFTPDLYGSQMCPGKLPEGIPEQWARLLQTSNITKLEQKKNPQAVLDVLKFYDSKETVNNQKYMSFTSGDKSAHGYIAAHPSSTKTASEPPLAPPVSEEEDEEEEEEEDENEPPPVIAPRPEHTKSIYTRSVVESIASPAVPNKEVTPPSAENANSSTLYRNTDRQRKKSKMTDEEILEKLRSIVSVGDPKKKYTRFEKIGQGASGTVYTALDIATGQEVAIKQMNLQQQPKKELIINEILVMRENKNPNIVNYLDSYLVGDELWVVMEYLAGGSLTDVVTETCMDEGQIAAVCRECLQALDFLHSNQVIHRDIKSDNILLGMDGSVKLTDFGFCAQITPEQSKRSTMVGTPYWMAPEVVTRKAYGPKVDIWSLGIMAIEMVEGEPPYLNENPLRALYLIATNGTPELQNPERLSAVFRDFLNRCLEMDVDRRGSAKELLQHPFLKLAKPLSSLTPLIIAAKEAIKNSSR
Experimental: as §1

DDR1 = biological target: T42, DDR1 (Homo sapiens, UniProt Q08345)
T42 construct: purchased Reaction Biology Corp
Experimental: as §1

PHKg2 = biological target: T43, PHKg2 (Homo sapiens, UniProt P15735)
T43 construct: purchased Reaction Biology Corp
Experimental: as §1

For `Cc1ccc(Nc2ncc3c(n2)N(C)C(=O)N(c2cc(C(=O)N[C@H](C(=O)N4CCC[C@H]4C(=O)NC(C)(C)C(=O)N[C@@H](CC(C)C)C(=O)N(C)C)C(C)C)ccc2C)C3)cn1` [7a, (S)-N-(1-(((S)-1-(dimethylamino)-4-methyl-1-oxopentan-2-yl)amino)-2-methyl-1-oxopropan-2-yl)-1-((4-methyl-3-(1-methyl-7-((6-methylpyridin-3-yl)amino)-2-oxo-1,4-dihydropyrimido[4,5-d]pyrimidin-3(2H)-yl)benzoyl)-L-valyl)pyrrolidine-2-carboxamide] (X1-VP[Aib]L-NMe2), the inhibition at 1 µM (AKT3) was 10%, the inhibition at 1 µM (Fgr) was 80% and the inhibition at 1 µM (RSK3) was 0%. The inhibition at 1 µM (CK1a1) was 0%, the inhibition at 1 µM (MARK1) was 0% and the inhibition at 1 µM (MARK4) was 0%. It also gave an inhibition at 1 µM (SNARK/NUAK2) of 6%, an inhibition at 1 µM (CAMK1a) of 1% and an inhibition at 1 µM (TNK1) of 2%. The inhibition at 1 µM (PKG1b) was 0%, the inhibition at 1 µM (TEC) was 2% and the inhibition at 1 µM (c-MER) was 1%. For the same molecule, the inhibition at 1 µM (P38d/MAPK13) was 0%, the inhibition at 1 µM (MRCKa/CDC42BPA) was 6% and the inhibition at 1 µM (CDK4/cyclin D3) was 3%. For the same molecule, the inhibition at 1 µM (PKCeta) was 27%, the inhibition at 1 µM (TRKB) was 5% and the inhibition at 1 µM (PKMYT1) was 8%. It also gave an inhibition at 1 µM (PKCiota) of 3%, an inhibition at 1 µM (FGFR1) of 37% and an inhibition at 1 µM (HIPK1) of 0%. It also gave an inhibition at 1 µM (NLK) of 3%, an inhibition at 1 µM (MEK1) of 8% and an inhibition at 1 µM (FRK/PTK5) of 15%. It also gave an inhibition at 1 µM (HIPK2) of 0%, an inhibition at 1 µM (DRAK1/STK17A) of 0% and an inhibition at 1 µM (CK1d) of 11%. For the same molecule, the inhibition at 1 µM (VRK1) was 0%, the inhibition at 1 µM (GLK/MAP4K3) was 9% and the inhibition at 1 µM (STK21/CIT) was 0%. It also gave an inhibition at 1 µM (PEAK1) of 44%, an inhibition at 1 µM (HIPK4) of 1% and an inhibition at 1 µM (ALK) of 0%. It also gave an inhibition at 1 µM (FLT4/VEGFR3) of 20%, an inhibition at 1 µM (FGFR3) of 0% and an inhibition at 1 µM (ZAK/MLTK) of 14%. It also gave an inhibition at 1 µM (ERK5/MAPK7) of 5%, an inhibition at 1 µM (NEK8) of 1% and an inhibition at 1 µM (c-Src) of 64%. For the same molecule, the inhibition at 1 µM (EPHA3) was 25%, the inhibition at 1 µM (PAK3) was 0% and the inhibition at 1 µM (DDR1) was 80%. It also gave an inhibition at 1 µM (PHKg2) of 0%.
